# Reference: patent publication US5977065A, “Bacterial nitroreductase for the reduction of CB1954 and analogues thereof to a cytotoxic form” (Cancer Research Campaign Technology Limited, priority 1991, dated 1999)
# Assays:
# [1] = system: V79 cells; experiment: Survival (colony-forming ability) of V79 cells treated with CB 1954 in the presence of E. coli B nitroreductase (Table 4); type: cell-based, Hamster; conditions: 500 μM NADH
# Protocol: E. coli B nitroreductase. All treatments were for 2 hours at 37°
# cells were then plated out for their resulting colony-forming ability.
# nitroreductase concentration was 2 μg/ml and NADH was used as a […]
# [2] = system: V79 cells; experiment: Survival (colony forming ability) of V79 cells with enzyme-activated prodrugs (Table 8); type: cell-based; conditions: 500 μM NADH alone
# Protocol: Generation of cytotoxicity by the action of the E. coli nitroreductase of Example 1 upon the prodrugs 4-[bis(2-chloroethyl)amino]phenylcarbamic acid 4'-nitrobenzyl ester (I where R^1 NH2 =III) and N-4-nitrobenzyloxy-carbonyl-actinomycin D (V) are shown in Table 8.
# The effect of enzyme-activated prodrugs on the survival of V79
# cells. 1 ml volumes of V79 cells (2 × 10^5 /ml) were incubated
# with prodrug, 500 μM NADH, and 10 μg/ml enzyme. After a 2 hour
# incubation at 37° C., the cells were harvested and assayed for
# their colony forming ability, and the supernatant assayed for
# the concentration of remaining prodrug by HPLC.
# [3] = system: MAWI cells; experiment: Survival (colony forming ability) of MAWI cells with enzyme-activated prodrugs (Table 7); type: cell-based, human; conditions: 500 μM NADH alone
# Protocol: The effect of enzyme-activated prodrugs on the survival of MAWI
# cells. 1 ml volumes of MAWI cells (2 × 10^5 /ml) were
# with 50 μM prodrug, 500 μM NADH, and 10 μg/ml the enzyme of
# Example 1. After a 2 hour incubation at 37° C., the cells were
# harvested and assayed for their colony forming ability, and the
# supernatant assayed for the concentration of remaining prodrug
# [4] = target: T1, E. coli B nitroreductase (Escherichia coli, UniProt P38489); experiment: Enzyme kinetic and inhibition studies; type: biochemical
# T1 construct: endogenous in cells; host or cells: E. coli B cell paste; endogenous enzyme purified by Phenyl-Sepharose and Q-Sepharose chromatography, not recombinant
# Protocol: Protein concentration was determined using the a conventional protein assay (Bio-Rad) calibrated against bovine serum albumin.
# [5] = target: T2, Walker NAD(P)H dehydrogenase (quinone) EC 1.6.99.2 (Rattus norvegicus, UniProt P05982); experiment: Enzyme kinetic studies; type: biochemical
# T2 construct: the enzyme isolated from the Walker tumour, EC.1.6.99.2; from tissue; host or cells: Walker tumour (Walker cell)
# T2 sequence (P05982 2-274 limits assumed): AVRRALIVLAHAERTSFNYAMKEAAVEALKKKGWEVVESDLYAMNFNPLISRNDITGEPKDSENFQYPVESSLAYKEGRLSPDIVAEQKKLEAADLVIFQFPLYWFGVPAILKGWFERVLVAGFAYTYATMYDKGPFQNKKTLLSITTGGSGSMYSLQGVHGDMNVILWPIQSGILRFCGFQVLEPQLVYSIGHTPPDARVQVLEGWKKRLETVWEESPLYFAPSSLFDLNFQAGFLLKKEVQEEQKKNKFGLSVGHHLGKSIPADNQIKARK
# Protocol: Quinone reductase activities were assayed by a spectrophotometric method using menadione as a substrate and cytochrome c as a terminal electron acceptor as described in Knox et al, Biochem. Pharmacol., 37, 4671-4677, 1988. Initial rates of reaction were determined by linear regression analysis (r>0.995) and kinetic parameters determined from the resulting plots as described by Roberts et al, Biochem. Pharmacol. 38, 4137-4143, 1989. Protein concentration was determined using the a conventional protein assay (Bio-Rad) calibrated against bovine serum albumin.
# Kinetic parameters for the E. coli nitroreductase and Walker NAD(P)H, dehydrogenase (quinone) EC. […] The absolute rates of reduction of CB 1954 (i.e. under saturating conditions) by the two enzymes is their kcat values and this is 90 fold higher for the E. coli nitroreductase.
# [6] = target: T3, Walker DT diaphorase (Rattus norvegicus, UniProt P05982); experiment: Cofactor ability for the reduction of CB 1954 (FIG. 1); type: biochemical; conditions: CB 1954 100 μM, reduced cofactor 500 μM
# T3 construct: the enzyme isolated from the Walker tumour, EC.1.6.99.2; from tissue; host or cells: Walker tumour (Walker cell)
# T3 sequence (P05982 2-274 limits assumed): T2 sequence (P05982 2-274 limits assumed)
# Protocol: (§1) At various times aliquots (10 μl) were injected onto a Partisil SCX (240×4.7 mm) HPLC column and eluted isocratically (2 ml/min) with 100 mM NaH2 PO4. The eluate was continuously monitored for absorption at 320, 260 and 360 nm and the concentration of CB 1954 calculated by integration of the peak corresponding to this compound on the HPLC trace.
# (§2) The ability of the nitroreductase enzyme to be able to use a synthetic cofactor in place of NADH or NADPH for the reduction of CB 1954 is shown in FIG. 1. […] Therefore 1,4-dihydro-nicotinic acid riboside is a selective cofactor for the E. coli nitroreductase enzyme and cannot be used by mammalian DT diaphorase.
# [7] = target: T4, E. coli nitroreductase (Escherichia coli, UniProt P38489); experiment: as above; type: biochemical; conditions: compared with NADH; CB 1954 100 μM, reduced cofactor 500 μM
# T4 construct: endogenous in cells; host or cells: E. coli B cell paste; endogenous enzyme purified by Phenyl-Sepharose and Q-Sepharose chromatography, not recombinant
# Protocol: as §1, §2
# T1 sequence (P38489 whole entry): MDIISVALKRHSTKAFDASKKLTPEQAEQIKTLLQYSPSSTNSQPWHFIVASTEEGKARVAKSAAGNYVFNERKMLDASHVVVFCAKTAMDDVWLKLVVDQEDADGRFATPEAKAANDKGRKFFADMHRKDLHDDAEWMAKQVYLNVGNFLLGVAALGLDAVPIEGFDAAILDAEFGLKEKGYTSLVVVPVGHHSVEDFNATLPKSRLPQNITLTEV
# T4 sequence (P38489 whole entry): as above
SMILES,% SURVIVAL [1] [%],% SURVIVAL [2] [%],% SURVIVAL [3] [%],Km of the nitroreductase for NADH less than the Walker enzyme [4],Km [5] [µM],ability to act as a cofactor for the reduction of CB 1954 [6],ability to act as a cofactor for the reduction of CB 1954 [7]
NC(=O)C1=CN([C@@H]2O[C@H](COP(=O)(O)OP(=O)(O)OC[C@H]3O[C@@H](n4cnc5c(N)ncnc54)[C@H](O)[C@@H]3O)[C@@H](O)[C@H]2O)C=CC1 [NADH],100,100,100,about 10 fold,75,–,–
"O=C(O)C1=CN([C@@H]2O[C@H](CO)[C@@H](O)[C@H]2O)C=CC1 [1,4-dihydro-nicotinic acid riboside]",–,–,–,–,–,cannot utilise,equal efficiency
